Laboratory results taken from US6083929A, “Extended type 1 chain glycosphingolipids as tumor-associated antigens” (The Biomembrane Institute, priority 1992, dated 2000).
Entries after “also recorded” stand apart in the source; their conditions may differ. Where two headings read alike, the source gives them in different places.

Assays:
[1] = system: MAb IMH2; test: TLC immunostaining / solid-phase ELISA reactivity of MAb IMH2 with GSL antigens; set-up: species or system mouse; conditions: TLC immunostaining / antibody binding on solid-phase antigen, IMH2 5 μg/ml
Protocol: FIG. 8 graphically illustrates the reactivity of MAb IMH2 with various glycosphingolipids (GSLs). Serial double dilutions of various GSL antigens were added to 96-well flat-bottom assay plates (Probind plate, Falcon) in ethanol and dried. Initial concentration of GSL added to the first well was 100 ng/well. MAb binding assay was performed by ELISA as described below. Abscissa, reciprocal of antigen dilution. Ordinate, optical density reading at 490 nm. Paragloboside is abbreviated as "PG". Panel A: reactivity of type 1 chain GSLS. .circle-solid., Le^b /Le^a. .smallcircle., Le^b hexasaccharide (IV^2 FucIII^4 FucLc4). Δ, Le^a /Le^a. .quadrature. […] Panel B: reactivity of type 2 chain GSLs. .circle-solid., Le^y /Le^x (VI^2 FucV^3 FucIII^3 FucnLc6). .smallcircle., Le^y hexasaccharide ceramide (IV^2 FucIII^3 FucnLc4). Δ, Le^x /Le^x (V^3 FucIII^3 FucnLc6). .quadrature. (all of the following had similar reactivity), H1 type 2 chain (IV^2 nLc4); H2 type 2 chain (IV^2 FucnLc6); PG (nLc4); Le^x (III^3 FucnLc4). When GSL antigens were mixed with cholesterol and phosphatidylcholine in a molar ratio of 1:5:3 in ethanol and analyzed as above, the relative degrees of reactivity were essentially the same as shown in the figure.
The binding specificity of MAb IMH2 was tested by thin-layer chromatography immunostaining of various GSL antigens by the method previously described by Magnani et al. (Anal. Biochem. 109:399-402, 1980), and modified by Kannagi et al. (Cancer Res. 43:4997-5005, 1983). IMH2 reactivity was also determined by antibody binding on solid-phase antigen as follows. Each GSL antigen, dissolved in ethanol (100 ng/50 μl), was placed in a well, serially diluted with ethanol to 0.1 ng/50 μl per well in a flat-bottom 48-well plate (Falcon, Becton-Dickinson, Lincoln Park, N.J.), and dried. The dried antigen in each well was then incubated with 1% bovine serum albumin in PBS for 1 hr at room temperature, followed by reaction with IMH2 (5 μg/ml) for 18 hr at 4° C. Each well was washed with PBS, followed by incubation with biotinylated second antibody and avidin-peroxidase conjugate as prepared in the ELISA assay kit. The orange color developed in each well was read by automated "ELISA reader" (EL312 Biokinetics Reader, Biotek Instruments, Winooski, Vt.), and optical density at […] for each well was recorded.

[2] = system: MAb MNH-1; test: TLC immunostaining with MAb MNH-1; format: binding; conditions: TLC immunostaining after enzymatic degradation of dimeric Le^a
Protocol: (§1) MAb ST-421 was established as previously described (Watanabe et al., Jpn. J. Cancer Res. (Gann) 76:43-52, 1985). MAb MNH-1, which defines type 1 chain N-acetyllactosamine (Galβ1→3GlcNAcβ1→R), was prepared in laboratory of the inventors; MAb 1B2, which defines type 2 chain N-acetyllactosamine (Galβ1→4GlcNAcβ1→R), was established as previously described (Young et al., J. Biol. Chem. 256:10967-10972, 1981). Anti-Le^a MAb was obtained from Chembiomed Ltd. (Edmonton, Alberta, Canada). […] HPTLC immunostaining was performed using Whatman HPTLC plates (HP-KF) by a modified version (Kannagi et al., J. Biol. Chem. 257:4438-4442, 1982; Kannagi et al., J. Biol. Chem. 257:14865-14874, 1982) of the method originally described by Magnani et al. (Magnani et al., Anal. Biochem. 109:399-402, 1980).
(§2) Enzymatic degradation of 1 mg dimeric Le^a was performed by sequential hydrolysis with 0.5 units of α-fucosidase (bovine kidney), 0.5 units of β-galactosidase (Cackbean), and 0.5 units of β-N-acetylglucosaminidase (bovine epididymis) (Sigma Chemical Co., St. Louis, Mo.). All reactions were carried out in 0.2 M sodium citrate (pH 4.5) for 4 hr at 37° C. in a water bath with shaking. Purification of each degradative product was performed by preparative HPTLC.
(§3) TLC immunostaining of the purified antigen component with various MAbs was performed before and after successive enzymatic degradation. […] Bands a and b are therefore assumed to be Lc6 (Table III, structure 6) and III^4 FucLc6 (structure 13), respectively, based on their reactivity with MAbs and on further enzymatic degradation patterns.

[3] = system: MAb 1B2; test: TLC immunostaining with MAb 1B2; format: binding; conditions: TLC immunostaining after enzymatic degradation of dimeric Le^a
Protocol: as §1, §2, §3

[4] = system: MAb ST-421; test: TLC immunostaining of GSL with MAb ST-421; format: binding
Protocol: as §1
Extended sialyl-Le^a on the SLe^a -Le^a structure was verified by enzymatic degradation with sialidase to yield the same compournd as Le^a -Le^a as verified by thin layer chromatography as well as immunostaining with monoclonal antibody ST-421.

[5] = system: anti-Le^a MAb; test: Reactivity of GSL with anti-Le^a MAb; format: binding
Protocol: as §1, §3

[6] = system: MAb ST-421; test: Solid-phase radioimmunoassay of glycolipids with MAb NCC-ST-421; format: binding; conditions: ST421 10 μg/ml, initial glycolipid 100 ng
Protocol: FIG. 7 graphically illustrates the reactivity of dimeric Le^a, Le^a -Le^x and related glycolipids with MAb NCC-ST-421. Solid-phase radioimmunoassay with MAb ST-421 using serially-diluted dimeric Le^a, Le^a /Le^x, and various structurally-related glycoilpid antigens. Initial concentration of glycolipids was 100 ng. ST421 was used at a concentration of 10 μg/ml. A, IV^3 Galβ1→3[Fuc1→4]GlcNAcIII^3 FucnLc4 (Le^a /Le^x; structure 10 in Table III); B, V^4 III^4 Fuc2 Lc6 (dimeric Le^a; structure 11); C, IV^3 Galβ1→3[Fucα1→4]GlcNAcnLc4 (structure 8); D, III^4 FucLc4 (structure 1); E, IV^3 (Galβ1→3GlcNAcIII^3 FucnLc4 (structure 9); F, V^3 III^3 Fuc2 nLc6 (structure 7); G, IV^2 FucLc4 (structure 2); H, IV^3 Galβ1→3GlcNAcnLc4 (structure 4); I, IV^2 III^4 Fuc2 Lc4 (structure 3); J, nLc6 (structure 5); K, VI^2 FucnLc6 (type 2 H with nLc6 core; not shown in Table III); L, VI^2 V^3 Fuc2 nLc6 (Le^y with nLc6 core; not shown in Table III).
The solid-phase radioimmunoassay as described by Kannagi et al. (Cancer Res. 43:4997-5005, 1983) was used. […] Dimeric Le^x and various other structurally related GSLs were not reactive with ST421 (FIG. 7).

[7] = system: anti-Le^y MAb AH6; test: Reactivity of GSL with anti-Le^y MAb AH6; format: binding
Protocol: as §1

[8] = system: anti-Le^b MAbs; test: Reactivity of GSL with anti-Le^b MAbs; format: binding
Protocol: as §1

**Q.** Which “reactivity of MAb IMH2 with GSL (in words)” value (shortened to “reactivity of MAb IMH2”) [1] does the source give for III^3 V^3 Fuc2 nLc6 [Dimeric Le^x] here?
**A.** Its value is “reacted weakly”.

**Q.** How did the “reactivity with MAb MNH-1” value [2] turn out when III^4 FucLc6 was run?
**A.** The value was “reacted with MAb MNH-1”.

**Q.** And the “reactivity with MAb 1B2” value [3]?
**A.** The value was “not with anti-Le^a or 1B2”.

**Q.** Which “reactivity with MAb ST-421” value [4] does the source give for III^4 V^4 Fuc2 Lc6 [dimeric Le^a] here?
**A.** The value was “stained strongly”.

**Q.** How did the “reactivity of MAb IMH2” value [1] turn out when IV^2 FucLc4 [H type 1 chain] was run?
**A.** The value was “did not react”.

**Q.** For IV^2 FucnLc4 [H1], which “reactivity of MAb IMH2” value [1] is on record?
**A.** Its value is “did not react”.

**Q.** Which “reactivity with anti-Le^a MAb” value [5] does the source give for “IV^3 Galβ1→3[Fuc1→4]GlcNAcIII^3 FucnLc4 [Le^a /Le^x]” here?
**A.** Its value is “reacted with anti-Le^a MAb”.

**Q.** What about the “reactivity with ST-421” value [6] of the same substance?
**A.** The value was “strongest reactivity; also recorded: clear preference for them compared to extended Le^a or simple Le^a”.

**Q.** And the “reactivity of MAb IMH2” value [1]?
**A.** Its value is “did not react”.

**Q.** And the “reactivity of MAb IMH2” value ([1]; listed as Le^a /Le^a)?
**A.** Its value is “reacted weakly”.

**Q.** And the “reactivity with MAb ST-421” value [4]?
**A.** Its value is “reacted with anti-Le^a MAb as well as with MAb ST-421”.

**Q.** And the “reactivity with MAb ST-421” value ([4]; listed as Le^a /Le^a)?
**A.** The value was “react strongly; also recorded: reacted with anti-Le^a MAb as well as with MAb ST-421”.

**Q.** What does the source list for Lc4?
**A.** reactivity of MAb IMH2 with GSL (in words) [1]: did not react; reactivity with MAb MNH-1 [2]: reacted strongly; reactivity with MAb 1B2 [3]: did not react

**Q.** Lc6 was tested. Which “reactivity with MAb MNH-1” value [2] did it give?
**A.** The value was “reacted with MAb MNH-1”.

**Q.** And the “reactivity with MAb 1B2” value [3]?
**A.** Its value is “not with anti-Le^a or 1B2”.

**Q.** How did the “reactivity of MAb IMH2” value [1] turn out when “VI^2 FucV^3 FucIII^3 FucnLc6 [Le^y /Le^x]” was run?
**A.** The value was “reacts strongly; also recorded: reacted equally well; also recorded: reacts”.

**Q.** What about the “reactivity with anti-Le^y MAb AH6” value [7] of the same substance?
**A.** The value was “reacted with AH6”.

**Q.** What about the “reactivity with anti-Le^b MAbs” value [8] of the same substance?
**A.** Its value is “not with anti-Le^b”.

**Q.** How did the “reactivity of MAb IMH2” value [1] turn out when VI^2 FucnLc6 [H2] was run?
**A.** Its value is “did not react”.

**Q.** For nLc4, which “reactivity of MAb IMH2” value [1] is on record?
**A.** Its value is “did not react”.
